Article PMC11597478, “Kinin B1- and B2-Receptor Subtypes Contract Isolated Bovine Ciliary Muscle: Their Role in Ocular Lens Function and Intraocular Pressure Reduction” (Pharmaceuticals, 2024)
Like-named read-outs stand apart in the source and are kept apart here. Peptide text beside a SMILES is read from it.

What was measured:
guinea pig taenia caeci = conditions: tissue contraction, ref [17],[18], cited from earlier work
Description: Table 2 Ability of BK and Des-Arg^9-BK to Contract Various Tissues of Different Species or to Mobilize Intracellular Ca^2+ in human Ocular Cells. | column: GPTC

human umbilical vein = conditions: B2-receptor-mediated contraction; ref [1],[2],[3],[18],[20],[23]; read-out: Functional potency, HUV, HP Site; cited from earlier work
Description: Table 2 Ability of BK and Des-Arg^9-BK to Contract Various Tissues of Different Species or to Mobilize Intracellular Ca^2+ in human Ocular Cells. | column: HUV

[1] = test system: recombinant B1 receptors expressed in host cells; conditions: ref [1]; read-out: binding affinity Ki, recombinant B1 receptor (rabbit); cited from earlier work
rat whole bladder = conditions: B2-receptor-mediated contraction; ref [1],[2],[3],[18],[20],[23]; read-out: Functional potency, RWB, HP Site; cited from earlier work
Description: Table 2 Ability of BK and Des-Arg^9-BK to Contract Various Tissues of Different Species or to Mobilize Intracellular Ca^2+ in human Ocular Cells. | column: RWB

guinea pig trachea = conditions: tissue contraction, ref [17],[18], cited from earlier work
Description: Table 2 Ability of BK and Des-Arg^9-BK to Contract Various Tissues of Different Species or to Mobilize Intracellular Ca^2+ in human Ocular Cells. | column: GPT

[2] = test system: human trabecular meshwork (hTM) cells; conditions: [Ca2+]i mobilization, second value of cell; single B2-receptor subtype; ref [2],[8]; read-out: Functional potency, hTM Cells, HP Site; cited from earlier work
Description: (§1) Table 2 Ability of BK and Des-Arg^9-BK to Contract Various Tissues of Different Species or to Mobilize Intracellular Ca^2+ in human Ocular Cells. | column: hCM/hTM Cells

[3] = test system: human ciliary muscle (hCM) cells; conditions: [Ca2+]i mobilization, first value of cell; single B2-receptor subtype; ref [2],[8]; read-out: Functional potency, hCM Cells, HP Site; cited from earlier work
Description: as §1

[4] = test system: bovine ciliary muscle (BCM) strips; experiment: tissue or blood; format: cell-based
Description: The methods utilized in the current studies were adapted from Lograno and Romano [13] and Ohia et al., with some minor modifications. Fresh bovine eyeballs were obtained from a local abattoir (Fisher Ham and Meat Company, Houston, TX, USA) and transported to the laboratory in ice. Whole eyeballs were placed in warm oxygenated Krebs buffer solution for 30 min to ensure equilibration before dissection of the ciliary muscle. Briefly, the anterior segment was dissected out of whole eyeballs after an incision was made at the limbus. The anterior segment containing the cornea, anterior uvea, and lens was then inverted and the lens dislodged with a probe along with the attached vitreous humor. After removal of the vitreous humor and lens, the whole ciliary muscle (comprising both longitudinal and circular portions) was quickly isolated and dissected from the scleral spur and choroid. Muscle strips of 4–5 mm in length were cut and mounted in 25 mL organ baths containing oxygenated Krebs solution at 37 °C using a silk thread linked to an isometric strain gauge under a constant load of 1g tension. The tissues were then allowed to equilibrate for 30 min. Two ciliary muscle strips were prepared from each eyeball and four to eight strips were used for each series of experiments. The composition of the Krebs solution used (mM) was NaCl, 118; KCl, 4.8; CaCl2, 2.5; KH2PO4, 1.2; NaHCO3, 25; MgSO4, 2.0; dextrose, 10 and flurbiprofen, 0.003 (pH 7.4), all purchased from Sigma-Aldrich, St. Louis, MO (USA). […] A robust response was characterized as a single contraction that consistently yielded a tension in the muscle induced by carbachol of 0.15–0.3 gm. […] Tissue strips were then thoroughly rinsed with fresh buffer solution via a series of buffer additions and drainage activities to remove any residual muscarinic agonist, and the preload was readjusted prior to starting the actual study with kininergic ligands. Concentration–response studies employed 7–11 compound concentrations (0.1 nM to 10 µM) and data from multiple experiments were collected.
The contractile responses obtained were expressed as gram tension developed and as percentages of the maximum response of each of the compounds. GraphPad Prism 4.0 Software (San Diego, CA, USA) was then used to construct the concentration–response curves for the kinins and to derive the half-maximal stimulation potencies (EC50) of each phase of the bi-phasic curves and the values tabulated as previously described.

human bladder strips = conditions: second value of cell, undefined kinin receptor, ref [10], read-out: Functional potency, M/H BSTP, HP Site (human); cited from earlier work
Description: (§2) Table 2 Ability of BK and Des-Arg^9-BK to Contract Various Tissues of Different Species or to Mobilize Intracellular Ca^2+ in human Ocular Cells. | column: M/H BSTP

mouse bladder strips = conditions: first value of cell, undefined kinin receptor, ref [10], read-out: Functional potency, M/H BSTP, HP Site (mouse); cited from earlier work
Description: as §2

[5] = test system: recombinant B1 receptors expressed in host cells; conditions: ref [1]; read-out: binding affinity Ki, recombinant B1 receptor (mouse); cited from earlier work
rat ileum = conditions: B1-receptor in rat ileum, contraction; ref [25]; read-out: Functional potency, RI, HP Site; cited from earlier work
Description: Table 2 Ability of BK and Des-Arg^9-BK to Contract Various Tissues of Different Species or to Mobilize Intracellular Ca^2+ in human Ocular Cells. | column: RI || In the current studies, both BK and Des-Arg^9-BK contracted the BCM in a biphasic fashion, indicating the involvement of both B1 and B2 receptors in the smooth muscle contraction process. Other agonist peptides related to BK also elicited similar profiles of contractility, thereby substantiating the effects of BK and Des-Arg^9-BK in this specific tissue. Furthermore, the role of both kinin receptor subtypes being responsible for contracting BCM in vitro was confirmed by sequentially recording the functional responses of the tissue in the presence of B1- and B2-receptor antagonists in numerous ...

[6] = test system: recombinant B1 receptors expressed in host cells; conditions: ref [1]; read-out: binding affinity Ki, recombinant B1 receptor (human); cited from earlier work
rat uterus strips = conditions: B2-receptor-mediated contraction; ref [1],[2],[3],[18],[20],[23]; read-out: Functional potency, RUT, HP Site; cited from earlier work
Description: Table 2 Ability of BK and Des-Arg^9-BK to Contract Various Tissues of Different Species or to Mobilize Intracellular Ca^2+ in human Ocular Cells. | column: RUT

## N=C(N)NCCC[C@H](NC(=O)[C@H](Cc1ccccc1)NC(=O)[C@@H]1CCCN1C(=O)[C@H](CO)NC(=O)[C@H](Cc1ccccc1)NC(=O)CNC(=O)[C@@H]1CCCN1C(=O)[C@@H]1CCCN1C(=O)[C@@H](N)CCCNC(=N)N)C(=O)O [BK, Bradykinin] (H-RPPGFSPFR-OH; N-terminus and C-terminus assumed)
Guinea pig taenia caeci; high potency site, read-out: Functional potency, GPTC, HP Site
  EC50: 3 nM
Guinea pig taenia caeci; low potency site, read-out: Functional potency, GPTC, LP Site
  EC50: 1000 nM
Human umbilical vein
  EC50: 9 nM
[1]
  Ki: 5000 nM
Rat whole bladder
  EC50: 90 nM
Guinea pig trachea; high potency site, read-out: Functional potency, GPT, HP Site
  EC50: 20 nM
Guinea pig trachea; low potency site, read-out: Functional potency, GPT, LP Site
  EC50: 4000 nM
[2]
  EC50: 1 nM
[3]
  EC50: 2.4 nM
[4]
  EC50: 0.9 ± 0.3 nM
[4]; biphasic C-R curve, BCM strips
  share of the maximal contraction accounted for by the first high affinity/potency phase: 40–60%
[4]; freshly isolated BCM strips, Krebs 37 °C, 1 g load, 7–11 concentrations (0.1 nM–10 µM), mean ± SEM, 3–8 experiments
  Max. Tension Generated During Contraction: 0.07 ± 0.01 gm tension
Human bladder strips
  EC50: 5100 nM
Mouse bladder strips
  EC50: 1200 nM
[5]
  Ki: 200 nM
Rat ileum
  EC50: 4890 nM
[6]
  Ki: 10000 nM
Rat uterus strips
  EC50: 3 nM
